We go through two molecules from patent US11383241B2, “Mechano-node pore sensing” (The Regents of the University of California, priority 2017, dated 2022).

Format in all cases: cell-based, human
One assay has as its system MCF-7 cells. The assay is described as follows: mechano-NPS mechanical phenotyping of Latrunculin-treated MCF-7 cells. The following applies: for cellular deformation in the transverse direction (δdeform) compared to control: one hour at 37° C.; for cellular deformation in the transverse direction (δdeform) compared to control / wCDI (whole cell deformability index) compared to untreated control cells: strain εavg˜0.3; for treated cells that instantaneously recover from deformation: ΔTr˜0 ms, untreated 38.3%. The text has this: (§1) Platform design, including geometry and sizing, may be configured and adapted to target indications, such as cell type and size range. In this example, the platform comprises of a 30 μm-high microfluidic channel embedded in a polydimethylsiloxane (PDMS) mold bonded to a glass substrate with pre-defined platinum (Pt) electrodes and gold (Au) contact pads (FIG. 1a). The central part of the channel, which we refer to as the “contraction channel”, is long (2055 μm) and narrow (10 or 12 μm-wide) and flanked on either side by a series of nodes and pores that are 85 μm and 25 μm wide, respectively (FIG. 1a, inset). The length of the contraction channel was chosen to provide sufficient time (˜30 ms) over which a cell experiences constant applied strain. The node and pore dimensions were chosen for sufficient signal-to noise ratios. Given the flexibility and ease of device design and fabrication, different contraction channel lengths and node and pore dimensions could be employed. Filters that are 25 μm in width (the width chosen based on the size range of cells measured in these studies, ˜15-20 μm in diameter) are included at the entrance of the microfluidic channel in order to remove cellular clusters that may otherwise clog the device. Applying a constant DC voltage (1 V) across the channel, we employ a four-terminal measurement technique^37-40 to measure the current pulses caused by cells transiting across the microfluidic channel when a non-pulsatile pressure of ˜21 kPa (determined by a commercial pressure gauge, SSI Technologies) is utilized (FIG. 1b and FIG. 2). After low-pass filtering all current versus time data, we employ custom-written software to extract both the magnitude and duration of each current sub-pulse (ΔInp, ΔIc, ΔTcont, and ΔTr in FIG. 1b; FIG. 3).
(§2) We disrupted actin polymerization with Latrunculin A and B (LatA and LatB, Enzo Life Sciences)^50. Prior to deformability measurements, MCF-7 and MCF-10A cells were incubated with 2.5 or 5 μg/mL LatA or LatB in each cell's respective growth medium for one hour at 37° C. and 5% CO2^29, 51, 52. Cells were then released from culture flasks with 0.25% trypsin/EDTA, rinsed once with PBS, centrifuged at […], and re-suspended in PBS at a concentration of ˜100,000 cells/mL. […] They were then permeabilized with 0.1% Triton-X 100 (Sigma-Aldrich) in PBS for 5 min. Cell nuclei and F-actin were then counter-stained with 4′,6-diamidino-2-phenylindole (DAPI, Sigma-Aldrich, 10236276001) and rhodamine phalloidin (Thermo Fisher Scientific, R415), respectively, per manufacturer's protocol, and then imaged with a Zeiss LSM710 confocal microscope.
(§3) To determine De, we measure polystyrene microspheres of known size with the microfluidic channel. Using the values of ΔI/I arising from the microspheres, along with the known values of L and d (the size of the microspheres in this instance), we can numerically solve for De in Equation (5). Once De is known, we can subsequently determine Dcell of a screened cell by numerically solving for d in Equation (5) using the obtained values of ΔInp/I. We can also determine the volume of the deformed cell, Vdeform, by the relationship^39, 57, 58, ΔIc/I˜Vdeform/Vcontraction, where Vcontraction is the volume of the contraction channel. To calculate Ldeform, we assume the cell undergoes an isometric deformation in the direction of both the channel's longitudinal axis and channel height, resulting in an oblate-spheroid shape. From the relationship between the volume and major radius of the oblate spheroid, Vdeform=πwcLdeform^2/6 where wc is the contraction-channel width, we can determine Ldeform from ΔIc/I. We quantify the transverse deformation of the cell, δdeform=Ldeform/Dcell, as it transits the contraction channel.
(§4) As a cell traverses through each section of the channel, the duration of the resulting sub-pulse produced by a cell corresponds to the cell's transit time (ΔT) through that part of the channel. […]

In a further assay the test system is MCF-10A cells. Briefly: mechano-NPS mechanical phenotyping of Latrunculin-treated MCF-10A cells. The note with it: for cellular deformation in the transverse direction (δdeform) compared to control: one hour at 37° C.; for cellular deformation in the transverse direction (δdeform) compared to control / wCDI (whole cell deformability index) compared to untreated control cells: strain εavg˜0.3; for treated cells that do not recover within the 40 ms time window (prolonged recovery): ΔTr>40 ms, untreated 9.7%.
From the text: as §1, §2, §3, §4

Another assay has as its system F-actin filaments. The assay is described as follows: F-actin staining (rhodamine phalloidin) and confocal microscopy of treated cells. The note with it: MCF-7 and MCF-10A cells, after one hour incubation; more so with Lat-A than with Lat-B. On the procedure:
as §2

Consider `C/C1=C/C(=O)O[C@@H]2C[C@@H](CC[C@H](C)/C=C\C=C\CC1)O[C@@](O)([C@@H]1CSC(=O)N1)C2` [LatA, Latrunculin A], for which, in the assay with MCF-7 cells (2.5 or 5 μg/mL), the “change in wCDI as a function of treatment concentration” value was “increased with concentration” and the “cellular deformation in the transverse direction (δdeform) compared to control” value is “significantly reduced”. In the assay on MCF-7 cells, the “wCDI (whole cell deformability index) compared to untreated control cells” value (shortened to “wCDI (whole cell deformability index)”) is reported as “increased” and the “treated cells that instantaneously recover from deformation” value was 8.1%. Moreover, in the assay on MCF-10A cells (2.5 or 5 μg/mL), the “change in wCDI as a function of treatment concentration” value is on record as “increased with concentration” and the “cellular deformation in the transverse direction (δdeform) compared to control” value is reported as “significantly reduced”. In addition, in the assay with MCF-10A cells, the “wCDI (whole cell deformability index)” value is “increased” and the “treated cells that do not recover within the 40 ms time window (prolonged recovery)” value is given as 66.7%. Besides, the “F-actin filaments by staining and confocal microscopy” value in the assay with F-actin filaments is listed as “inhibited”.

In the case of `C/C1=C/C(=O)O[C@@H]2C[C@@H](CC[C@H](C)/C=C\CC1)O[C@@](O)([C@@H]1CSC(=O)N1)C2` [LatB, Latrunculin B], the “cellular deformation in the transverse direction (δdeform) compared to control” value with MCF-7 cells (2.5 or 5 μg/mL) is “significantly reduced”. In the assay on MCF-7 cells, the “wCDI (whole cell deformability index)” value was “increased” and the “treated cells that instantaneously recover from deformation” value turned out to be 24.2%. For the same molecule, the “cellular deformation in the transverse direction (δdeform) compared to control” value in the assay with MCF-10A cells (2.5 or 5 μg/mL) is listed as “significantly reduced”. For the same molecule, in the assay on MCF-10A cells, the “wCDI (whole cell deformability index)” value is “no detectable change” and the “treated cells that do not recover within the 40 ms time window (prolonged recovery)” value was 41.4%. Also, the “F-actin filaments by staining and confocal microscopy” value in the assay on F-actin filaments is “inhibited”.
